Our source for the IC50 values is patent US7205305B2, “Inhibitors of p38” (Vertex Pharmaceuticals Incorporated, priority 1996, dated 2007).

The subject of test [1] is IL-1 production in LPS-stimulated PBMCs. In words: Inhibition of IL-1 production in LPS-stimulated PBMCs ("cell"). Type of test: cell-based, human. To be noted: Homo sapiens, PBMC. The protocol: (§1) Inhibitors were serially diluted in DMSO from a 20 mM stock. At least 6 serial dilutions were prepared. Then 4× inhibitor stocks were prepared by adding 4 μl of an inhibitor dilution to 1 ml of RPMI1640 medium/10% fetal bovine serum. The 4× inhibitor stocks contained inhibitor at concentrations of 80 μM, 32 μM, 12.8 μM, 5.12 μM, 2.048 μM, 0.819 μM, 0.328 μM, 0.131 μM, 0.052 μM, 0.021 μM etc. The 4× inhibitor stocks were pre-warmed at 37° C. until use.
(§2) Fresh human blood buffy cells were separated from other cells in a Vacutainer CPT from Becton & Dickinson (containing 4 ml blood and enough DPBS without Mg^2+/Ca^2+ to fill the tube) by centrifugation at 1500×g for 15 min. Peripheral blood mononuclear cells (PBMCs), located on top of the gradient in the Vacutainer, were removed and washed twice with RPMI1640 medium/10% fetal bovine serum. PBMCs were collected by centrifugation at 500×g for 10 min. The total cell number was determined using a Neubauer Cell Chamber and the cells were adjusted to a concentration of 4.8×10^6 cells/ml in cell culture medium (RPMI1640 supplemented with 10% fetal bovine serum).
(§3) We placed 100 μl of cell suspension or whole blood in each well of a 96-well cell culture plate. Then we added 50 μl of the 4× inhibitor stock to the cells. Finally, we added 50 μl of a lipopolysaccharide (LPS) working stock solution (16 ng/ml in cell culture medium) to give a final concentration of 4 ng/ml LPS in the assay. The total assay volume of the vehicle control was also adjusted to 200 μl by adding 50 μl cell culture medium. The PBMC cells or whole blood were then incubated overnight (for 12–15 hours) at 37° C./5% CO2 in a humidified atmosphere.
(§4) The next day the cells were mixed on a shaker for 3–5 minutes before centrifugation at 500×g for 5 minutes. Cell culture supernatants were harvested and analyzed by ELISA for levels of IL-1b (R & D Systems, Quantikine kits, #DBL50), TNF-α (BioSource, #KHC3012), IL-6 (Endogen, #EH2-IL6) and IL-8 (Endogen, #EH2-IL8) according to the instructions of the manufacturer. The ELISA data were used to generate dose-response curves from which IC50 values were derived.

The target of a further test is activated p38 (Homo sapiens, UniProt Q16539). The test can be described thus: Inhibition of phosphorylation of EGF receptor peptide ("kinase"). To be noted: inhibition of phosphorylation of EGF receptor peptide by activated p38. Type of test: biochemical. The protocol:
This assay was carried out in the presence of 10 mM MgCl2, 25 mM β-glycerophosphate, 10% glycerol and 100 mM HEPES buffer at pH 7.6. […] The stock solution was aliquotted into vials. A fixed volume of DMSO or inhibitor in DMSO (final concentration of DMSO in reaction was 5%) was introduced to each vial, mixed and incubated for 15 minutes at room temperature. EGF receptor peptide, […], a phosphoryl acceptor in p38-catalyzed kinase reaction (1), was added to each vial to a final concentration of 200 μM. The kinase reaction was initiated with ATP (100 μM) and the vials were incubated at 30° C. After 30 minutes, the reactions were quenched with equal volume of 10% trifluoroacetic acid (TFA).
The phosphorylated peptide was quantified by HPLC analysis. Separation of phosphorylated peptide from the unphosphorylated peptide was achieved on a reverse phase column (Deltapak, 5 μm, C18 100D, part no. 011795) with a binary gradient of water and acteonitrile, each containing 0.1% TFA.

The test system of test [2] is TNF production in LPS-stimulated PBMCs. The test can be described thus: Inhibition of TNF production in LPS-stimulated PBMCs ("cell"). Format: cell-based, human. Particulars: Homo sapiens, PBMC. The procedure:
as §1, §2, §3, §4

Molecules are shown by their SMILES. pIC50: −log10 of the molar value.

By pIC50 is commonly meant the IC50 on a negative log10 scale, so that one unit is a factor of ten. The low end stands for a high IC50, the high end for a low IC50.

activated p38, sequence (Q16539 whole entry): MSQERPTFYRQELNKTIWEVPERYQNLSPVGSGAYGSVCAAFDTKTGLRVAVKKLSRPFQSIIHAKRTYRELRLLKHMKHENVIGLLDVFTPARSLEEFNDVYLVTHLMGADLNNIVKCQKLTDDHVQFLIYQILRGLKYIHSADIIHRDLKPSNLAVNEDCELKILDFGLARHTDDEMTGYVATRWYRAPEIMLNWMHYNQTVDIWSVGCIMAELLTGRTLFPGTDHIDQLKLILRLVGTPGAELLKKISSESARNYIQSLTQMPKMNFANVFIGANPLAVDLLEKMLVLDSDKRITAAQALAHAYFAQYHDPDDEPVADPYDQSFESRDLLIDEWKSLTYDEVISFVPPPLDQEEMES

Turning to `O=c1ncn2nc(Sc3ccccc3)ccc2c1-c1ccccc1Cl` [Compound 7], the results for the pIC50 (in test [1]; on activated p38; in test [2]) were not above 6.30, not above 6.00 and not above 6.30, respectively.

For the compound `Cc1ccccc1-c1c(=O)ncn2nc(Sc3ccccc3)ccc12` [Compound 8], the figures for the pIC50 (in test [1]; against activated p38; in test [2]) were not above 6.30, not above 6.00 and not above 6.30, respectively.

Take `O=c1ncn2nc(Sc3ccccc3)ccc2c1-c1ccc(Cl)c(Cl)c1` [Compound 9]: the values for the pIC50 (in test [1]; on activated p38; in test [2]) were not above 6.30, not above 6.00 and not above 6.30, respectively.

Turning to `COc1ccccc1-c1c(=O)ncn2nc(Sc3ccccc3)ccc12` [Compound 11], the results for the pIC50 (in test [1]; at activated p38; in test [2]) were not above 6.30, not above 6.00 and not above 6.30, respectively.

As to `Cc1c(Sc2ccccc2)nn2cnc(=O)c(-c3c(Cl)cccc3Cl)c2c1C` [Compound 13], the pIC50 in test [1] was not above 6.30; at activated p38, not above 6.00; in test [2] it was not above 6.30.

In the case of `Cc1ccc(Sc2ccc3c(-c4c(Cl)cccc4Cl)c(=O)ncn3n2)cc1` [Compound 14], the figures for the pIC50 (in test [1]; against activated p38; in test [2]) were 6.30 to 7.00, not above 6.00 and not above 6.30, respectively.

In the case of `Cc1cccc(Sc2ccc3c(-c4c(Cl)cccc4Cl)c(=O)ncn3n2)c1` [Compound 15], the pIC50 in test [1] was 6.30 to 7.00; against activated p38 it was not above 6.00; in test [2] it was 6.30 to 7.00.

For the compound `O=c1ncn2nc(Sc3ccc(Cl)c(Cl)c3)ccc2c1-c1c(Cl)cccc1Cl` [Compound 16], the figures for the pIC50 (in test [1]; at activated p38; in test [2]) were not above 6.30, 6.00 to 7.00 and 6.30 to 7.00, respectively.

Take `O=c1ncn2nc(Sc3ccccc3)ccc2c1-c1c(F)cccc1F` [Compound 17]: the pIC50 in test [1] is not above 6.30; against activated p38, not above 6.00; in test [2] it was not above 6.30.

In the case of `CC(C)c1ccccc1Sc1ccc2c(-c3c(Cl)cccc3Cl)c(=O)ncn2n1` [Compound 18], the pIC50 is not above 6.30 in test [1], not above 6.00 against activated p38 and not above 6.30 in test [2].

For `Cc1ccc(Sc2ccc3c(-c4c(Cl)cccc4Cl)c(=O)ncn3n2)cc1C` [Compound 19], the values for the pIC50 (in test [1]; against activated p38; in test [2]) were not above 6.30, not above 6.00 and not above 6.30, respectively.

With `CCc1ccccc1Sc1ccc2c(-c3c(Cl)cccc3Cl)c(=O)ncn2n1` [Compound 20], the results for the pIC50 (in test [1]; at activated p38; in test [2]) were not above 6.30, 6.00 to 7.00 and not above 6.30, respectively.

As for `O=c1ncn2nc(Sc3cccc(F)c3)ccc2c1-c1c(Cl)cccc1Cl` [Compound 21], the pIC50 is 6.30 to 7.00 in test [1], 6.00 to 7.00 at activated p38 and not above 6.30 in test [2].

With `O=c1ncn2nc(Sc3ccccc3)ccc2c1-c1c(F)cccc1C(F)(F)F` [Compound 22], the results for the pIC50 (in test [1]; against activated p38; in test [2]) were not above 6.30, not above 6.00 and not above 6.30, respectively.

With `O=c1ncn2nc(Sc3cccc(Cl)c3)ccc2c1-c1c(Cl)cccc1Cl` [Compound 25], the pIC50 in test [1] was 6.30 to 7.00; on activated p38, 6.00 to 7.00; in test [2] it was not above 6.30.

As to `Cc1cc(Cl)ccc1Sc1ccc2c(-c3c(Cl)cccc3Cl)c(=O)ncn2n1` [Compound 28], the pIC50 is 6.30 to 7.00 in test [1], 6.00 to 7.00 against activated p38 and 6.30 to 7.00 in test [2].

On to `O=c1ncn2nc(Sc3ccccc3Br)ccc2c1-c1c(Cl)cccc1Cl` [Compound 29], for which the pIC50 is 6.30 to 7.00 in test [1], 6.00 to 7.00 against activated p38 and 6.30 to 7.00 in test [2].

As for `CN(C)C(=O)c1ccccc1Sc1ccc2c(-c3c(Cl)cccc3Cl)c(=O)ncn2n1` [Compound 31], the pIC50 in test [1] is not above 6.30; against activated p38 it was not above 6.00; in test [2], not above 6.30.

With `O=c1ncn2nc(Sc3ccc(F)cc3[N+](=O)[O-])ccc2c1-c1c(Cl)cccc1Cl` [Compound 34], the pIC50 in test [1] was not above 6.30; on activated p38, not above 6.00; in test [2], not above 6.30.

Consider `O=c1ncn2nc(Sc3ccc(F)cc3)ccc2c1-c1cc2c(cc1Cl)OCO2` [Compound 39], for which the pIC50 is not above 6.30 in test [1], 6.00 to 7.00 against activated p38 and not above 6.30 in test [2].

Take `Cc1nc(=O)c(-c2c(Cl)cccc2Cl)c2ccc(Sc3ccc(F)c(Cl)c3)nn12` [Compound 40]: the pIC50 in test [1] is 6.30 to 7.00; against activated p38, 6.00 to 7.00; in test [2], not above 6.30.

Take `Cc1cc(Sc2ccc3c(-c4c(Cl)cccc4Cl)c(=O)ncn3n2)c(Cl)cc1F` [Compound 41]: the pIC50 (in test [1]; at activated p38; in test [2]) was not below 7.00 throughout.

Turning to `COc1cc(Cl)c(-c2c(=O)ncn3nc(Sc4ccc(F)cc4)ccc23)cc1OC` [Compound 43], the pIC50 in test [1] was not above 6.30; at activated p38, 6.00 to 7.00; in test [2], not above 6.30.

For `Cc1cc(Cl)c(-c2c(=O)ncn3nc(Sc4ccc(F)cc4)ccc23)cc1C` [Compound 44], the pIC50 was not above 6.30 in test [1], 6.00 to 7.00 on activated p38 and not above 6.30 in test [2].

Consider `Nc1ccc(-c2c(=O)ncn3nc(Sc4ccc(F)cc4)ccc23)c(Cl)c1` [Compound 46], for which the pIC50 in test [1] was not above 6.30; against activated p38, 6.00 to 7.00; in test [2], not above 6.30.

Regarding `COc1ccc(-c2c(=O)ncn3nc(Sc4ccc(F)cc4)ccc23)c(Cl)c1` [Compound 47], the pIC50 in test [1] is 6.30 to 7.00; against activated p38, 6.00 to 7.00; in test [2], not above 6.30.

For `CN(C)/C=N\c1ccc(-c2c(=O)ncn3nc(Sc4ccc(F)cc4Cl)ccc23)c(Cl)c1` [Compound 48], the results for the pIC50 (in test [1]; against activated p38; in test [2]) were 6.30 to 7.00, 6.00 to 7.00 and not above 6.30, respectively.

For the compound `NC(=O)c1ccccc1SC1=NN2CNC(=O)C(c3c(Cl)cccc3Cl)=C2C=C1` [Compound 105], the figures for the pIC50 (in test [1]; at activated p38; in test [2]) were not above 6.30, 6.00 to 7.00 and not above 6.30, respectively.

For `O=C1NCN2N=C(Sc3ccccn3)C=CC2=C1c1c(Cl)cccc1Cl` [Compound 107], the pIC50 in test [1] was not above 6.30; at activated p38, 6.00 to 7.00; in test [2], not above 6.30.

Regarding `O=C1NCN2C=C(Sc3ccccc3)C=CC2=C1c1c(Cl)cccc1Cl` [Compound 110], the pIC50 is not above 6.30 in test [1], 6.00 to 7.00 against activated p38 and not above 6.30 in test [2].

In the case of `O=C1NCN2C=C(Sc3ccc(F)cc3)C=CC2=C1c1c(Cl)cccc1Cl` [Compound 111], the pIC50 was not above 6.30 in test [1], 6.00 to 7.00 on activated p38 and not above 6.30 in test [2].

With `N=C(N)Nc1cc(F)c(F)cc1SC1=NN2CNC(=O)C(c3c(Cl)cccc3Cl)=C2C=C1` [Compound 124], the pIC50 is not above 6.30 in test [1], not above 6.00 against activated p38 and not above 6.30 in test [2].

On to `Nc1cc(C(F)(F)F)ccc1SC1=NN2CNC(=O)C(c3c(Cl)cccc3Cl)=C2C=C1` [Compound 126], for which the pIC50 in test [1] is 6.30 to 7.00; against activated p38, not above 6.00; in test [2] it was not above 6.30.

For the compound `NC(=O)Nc1cc(F)ccc1SC1=NN2CNC(=O)C(c3c(Cl)cccc3Cl)=C2C=C1` [Compound 128], the pIC50 is not above 6.30 in test [1], not above 6.00 on activated p38 and not above 6.30 in test [2].

Take `O=C1NCN2N=C(Sc3ccccc3)C=CC2=C1c1c(F)cccc1F` [Compound 130]: the results for the pIC50 (in test [1]; against activated p38; in test [2]) were 6.30 to 7.00, not below 7.00 and not above 6.30, respectively.

On to `NC(=O)C(c1ccc(C(O)c2ccccc2)cn1)c1c(Cl)cccc1Cl` (stereo not shown) [Compound 208], for which the pIC50 in test [1] was 6.30 to 7.00.

As to `NC(=O)C(c1ccc(C(=O)c2ccccc2)cn1)c1c(Cl)cccc1Cl` (stereo not shown) [Compound 209], the pIC50 in test [1] was not above 6.30.

Turning to `COc1ccc(-c2cccc(C(C(N)=O)c3c(Cl)cccc3Cl)n2)cc1` (stereo not shown) [Compound 352], the pIC50 was not above 6.30 in test [1] and not above 6.00 against activated p38.
